This is an account of results in patent US20060234292A1, “Methods of diagnosing and treating diabetes and insulin resistance” (priority 2002, published 2006).

What all share (assay type): in vivo, human
The test system of test [1] is MAST205/MAST205b transcripts. In words: Gene expression profiling (Affymetrix chips) of muscle from diabetics before/after 3 months troglitazone: MAST205/MAST205b. To be noted: basal muscle sample. Here is the method:
Gene expression profiling was performed on tissue samples (muscle) obtained from lean obese and diabetic individuals. Two studies were performed. In the first study, basal samples were isolated from all individuals at the beginning of a 5 hour hyperinsulinemic euglycemic clamp. Clamp samples were isolated at the end of this procedure. Similar basal and clamp samples were taken 3 months later after all patients had taken the insulin sensitizing drug troglitazone (tro). Gene expression profile differences were calculated as follows. The expression level of a particular gene is indicated by its ‘average difference score’. The raw data was analyzed by a statistical test to remove ‘outliers’. The mean ‘average difference score’ was then calculated from the average difference scores for all individuals in a particular treatment group. Genes were determined to be changed in three different comparisons by calculating the Students t test statistic between two conditions and selecting those with t less than or equal to 0.05. Fold change was determined as the ratio of mean average difference score in condition 2 to the mean average difference score in condition 1. The first comparison is basal leans (condition 1) versus basal obese (condition 2). The second comparison is basal leans (condition 1) versus basal diabetics (condition). […]

The test system of test [2] is Protein C inhibitor (PCI) transcripts. Briefly: Gene expression profiling (Affymetrix chips) of muscle from diabetics before/after 3 months troglitazone: PCI. To be noted: basal muscle sample. An excerpt:
The molecular mechanism by which thiazolidinediones (TZDs) cause an increase in peripheral insulin sensitivity was studied. Genes in muscle or fat whose expression is altered by TZDs may lie on a pathway leading from TZD treatment to increased insulin sensitivity. Modulators of such genes can elicit the same effect as TZD treatment. Moreover, such modulators can lack some of the side effects of TZD. The majority of glucose disposal occurs in muscle. For this reason, gene expression profiling in human muscle from diabetics treated with troglitazone was used to identify genes important for TZD action and therefore treatment of diabetes and insulin resistance. Gene expression profiling was performed on tissue samples (muscle) obtained from lean obese and diabetic individuals. […] Gene expression profile differences were calculated as follows. […] The raw data was analyzed by a statistical test to remove ‘outliers’. The mean ‘average difference score’ was then calculated from the average difference scores for all individuals in a particular treatment group. Genes were determined to be changed in three different comparisons by calculating the Students t test statistic between two conditions and selecting those with t less than or equal to 0.05. Fold change was determined as the ratio of mean average difference score in condition 2 to the mean average difference score in condition 1. […]

The test system of test [3] is Protein C inhibitor (PCI) expression. Briefly: Real time PCR of PCI expression in muscle, pre- vs post-troglitazone-treated patients. To be noted: mean diabetic post-Tro/mean diabetic pre-Tro expression. Here is the method: The gene expression changes observed in the human muscle samples derived from the various comparison populations analyzed in the profiling analysis described above were further confirmed by the use of real-time quantitative PCR. A combination of specific PCR primers and a Taqman probe were designed to detect and quantify expression levels for each gene. Relative gene expression levels were determined in this manner in each patient and the mean expression levels in the comparison populations were then calculated. PCI expression was also evaluated by real time PCR in lean vs. obese individuals and in pre-troglitazone-treated vs post-troglitazone-treated patients.

A further test concerns MAST205 expression. Briefly: Real-time PCR (Taqman) specific for MAST205 in muscle before/after 3 months troglitazone. Here is the method:
(§1) The gene expression changes observed in the human muscle samples derived from the various comparison populations analyzed in the profiling analysis described above were further confirmed by the use of real-time quantitative PCR. A combination of specific PCR primers and a Taqman probe were designed to detect and quantify expression levels for each gene. Relative gene expression levels were determined in this manner in each patient and the mean expression levels in the comparison populations were then calculated. […] PCR primers and Taqman Probe were designed to detect specifically the expression of MAST205. The sequences of the primers was as follows: […]
Background: In qPCR the cycle at which signal appears reflects the starting amount.

For another test, the system named is MAST205b expression. Briefly: Real-time PCR (Taqman) specific for MAST205b in muscle before/after 3 months troglitazone. The procedure: as §1, with “MAST205b.” for “MAST205.”
[4] abbreviates: 3 months troglitazone, gene profiling.
Setting [5] is: muscle, lean individuals after 3 months troglitazone, relative to Lean Pre-Trog = 100%.
[6] abbreviates: ratio of relative expression Diabetic Post-Trog to Diabetic Pre-Trog.

As to `Cc1c(C)c2c(c(C)c1O)CCC(C)(COc1ccc(CC3SC(=O)NC3=O)cc1)O2` (centres unmarked) [troglitazone], in test [1] (setting [4]), the “Fold Change, Diabetic Post-Trog vs Pre-Trog (MAST205)” value stood at 0.74. Also, the “Mean Expr, Diabetic Post-Trog (MAST205)” value in test [1] (diabetics after 3 months troglitazone, pre-Trog mean 1234) is listed as 919. Also, the “Fold Change (diabetic post tro/diabetic pre tro), Protein C inhibitor” value in test [2] (setting [4]) stood at 0.51. For the same compound, in test [2] (diabetics after 3 months of Troglitazone treatment, pre-Trog mean 1422), the “Mean Expr, Diabetic Post-Trog (Protein C inhibitor)” value is 722. The “Expression Fold change, Diabetics + Tro/Diabetics − Tro (PCI)” value in test [3] was 0.33. Also, the “Relative Exp (%), Diabetic Post-Tro (MAST205)” value in the test on MAST205 expression (muscle, diabetics after 3 months troglitazone, relative to Lean Pre-Trog = 100%, Diabetic Pre-Trog 242) is given as 66%. In addition, the “Relative Exp (%), Lean Post-Trog (MAST205)” value in the test on MAST205 expression (setting [5]) is 98%. The “Fold Change (D+/D−) (MAST205)” value with MAST205 expression (setting [6]) is 0.27. Moreover, the “Relative Exp (%), Diabetic Post-Tro (MAST205b)” value in the test with MAST205b expression (muscle, diabetics after 3 months troglitazone, relative to Lean Pre-Trog = 100%, Diabetic Pre-Trog 197) was determined as 111%. Besides, the “Relative Exp (%), Lean Post-Trog (MAST205b)” value in the test on MAST205b expression (setting [5]) was determined as 88%. Moreover, the “Fold Change (D+/D−) (MAST205b)” value in the test with MAST205b expression (setting [6]) amounted to 0.56.
